This is an account of results in patent publication EP2769974A1, “Novel AMPK activator” (Debiopharm S.A., priority 2013, dated 2014).

SMILES strings stand for the structures.

Experiment [1] has as its system β1-containing heterotrimers of human recombinant AMPK. As to the kind of experiment: AMPK activation assay (phosphorylation of ACC1/1-120 at ser79, AlphaScreen), β1-containing heterotrimers. The class given is biochemical. The conditions noted are these: two β1-containing heterotrimers; 100 µM ATP, room temperature, 60 minutes. The method, then:
(§1) The compound of formula (I) was assayed in vitro to determine its EC50 against four different AMPK heterotrimers (two containing the β1 subunit and two containing the β2 subunit). AMPK activity was measured by the phosphorylation of the amino-terminal fragment of human acetyl CoA carboxylase-type 1, amino acids 1-120 (ACC1/1-120), at ser79. The fragment was expressed as a biotinylated fusion protein in E.coli. Human rAMPK genes were expressed in insect cells using baculovirus vectors or in the monkey COS7 cell expression systems. The compound was tested in triplicate at each of the following concentrations (µM): 45, 15, 5, 1.67, 0.56, 0.185, 0.06, 0.02 and 0.00685. A positive control comprising AMP (100 uM), and a negative control without enzyme, were used. The enzyme assay was conducted in a 5 µl reaction mixture containing compound of formula (I) at the indicated concentrations in 80 mM HEPES, pH7.0, 160 mM NaCl, 2.5 mM MgCl2, 1mM DTT, 0.05% Tween-20, 100 µM ATP with AMPK at 0.08 ng/µl and ACC1/1-120 at 0.004 ng/µl. […] The reaction mixture was further incubated overnight at RT and analyzed on a Perkin EImer Fusion-Alpha microplate analyzer. The AlphaScreen readout for this assay is based on an excitation with laser-stimulated visible light at 680 nm and emission at 520-620 nm.

The subject of experiment [2] is β2-containing heterotrimers of human recombinant AMPK. As to the kind of experiment: AMPK activation assay (phosphorylation of ACC1/1-120 at ser79, AlphaScreen), β2-containing heterotrimers. Format: biochemical. The following applies: two β2-containing heterotrimers; 100 µM ATP, room temperature, 60 minutes. The method, then:
as §1

For experiment [3], the system named is high-fat diet-fed (HFD) mice. As to the kind of experiment: Fasting plasma glycemia and insulin sensitivity in high-fat diet-fed (HFD) mice. Format: in vivo. The method, then: Six-week-old male C57BI/6 mice were fed a high-fat diet or chow diet for 3 months. Then, HFD mice were treated orally with vehicle (Control HFD) or compound of formula (I) at 60 mg/kg twice daily for 4 weeks. Chow fed mice were treated orally with vehicle alone (Control CD). At completion of this treatment period, mice were fasted for 6 hours and blood glucose levels were assessed with a blood glucosemeter from blood samples collected from the tip of the tail vein.

In experiment [4] the test system is HFD mice. The experiment can be described thus: Hepatic glucose production in HFD mice (hyperinsulinemic-euglycemic clamp). Format: in vivo. The conditions noted are these: for hepatic glucose production: orally 60 mg/kg twice daily for 40 days, under insulin stimulated states, p < 0.001 vs Control HFD, 60 mg/kg. The method, then:
Six-week-old male C57BI/6 mice were fed a high-fat diet or chow diet for 3 months. Then, HFD mice were treated orally with vehicle (Control HFD) or compound of formula (I) at 60 mg/kg twice daily for 40 days. Chow fed mice were treated orally with vehicle alone (Control CD). Hepatic glucose production was assessed during a hyperinsulinemic-euglycemic clamp using a 12 mU/kg/min insulin infusion rate. Hyperinsulinemic-euglycemic clamps were performed in chronically cannulated awake free moving mice. Before the start of the clamp procedure mice were fasted for 6 hours. ^3H-glucose alone was then infused for 210 minutes to assess the basal whole body glucose turnover (= hepatic glucose output). The basal procedure started with D-[3-3H]glucose, which was infused (2µL/min, 30µCi/min/kg) for 90 minutes (time -60 to time 30 minutes). An euglycemic hyperinsulinemic 1 step insulin clamp was then performed from 30 minutes to 150 minutes, with a 12mU/kg/min insulin infusion. Glucose (16.5%) infusion rate was adjusted until steady-state blood glucose (120 mg/dL, ± 10 mg/dL) was achieved. Calculations for glucose turnover measurements were made from parameters obtained during the last 60 min of the infusions in steady-state condition, Briefly, the D-[3-3H]glucose-specific activity was calculated by dividing the D-[3-3H]glucose enrichment by the plasma glucose concentration. The whole-body glucose turnover rate was calculated by dividing the rate of D-[3-3H]glucose by the D-[3-3H]glucose plasma-specific activity. For each mouse, the mean values were calculated and averaged with values from mice of the same group.

For experiment [5], the system named is HFD mice. The experiment can be described thus: Hepatic lipids in HFD mice. The conditions noted are these: orally 60 mg/Kg twice daily for 40 days, to near control chow values. The class given is in vivo. The method, then:
Six-week-old male C57BI/6 mice were fed a high-fat diet or chow diet for 3 months. Then, HFD mice were treated orally with vehicle (Control HFD) or compound of formula (I) at 60 mg/Kg twice daily for 40 days. Chow fed mice were treated orally with vehicle alone (Control CD). At completion of this treatment period, mice were sacrificed and liver collected for determination of triglycerides, cholesterol and free fatty acids (FFA) content. Commercial kits were used to measure the levels of hepatic cholesterol (cholesterol RTU, Biomerieux), triglyceride (TG) (triglyceride PAP 150, Biomerieux), and fatty acid (NEFA-HR (2), Wako Chemicals) levels from liver homogenate. Results were then normalized to the weight of the sample.

Experiment [6] has as its system HFD hamster. As to the kind of experiment: Circulating lipids (FPLC lipoprotein profile) and insulin sensitivity in HFD hamster. The class given is in vivo. As to the method:
Hamsters were fed a control chow diet with normal drinking water or high fat diet with 10% fructose drinking water over 30 days. After 16 days of high-fat diet, two groups of hamsters were treated orally with either vehicle (control HFD) or Compound of formula (I) twice daily for 14 days. Hamsters fed the chow diet were also treated orally for 14 days with vehicle BID (control CD). After the treatment period, hamsters were overnight fasted, blood samples were obtained from the retroorbital plexus. Plasma was immediately isolated by centrifugation and for each group, a 400 µL pool of plasma was made from the individual plasma samples. Lipoproteins were separated by fast performance liquid chromatography (FPLC). FPLC fractions were monitored for cholesterol levels.

The mark [7] stands for this setting: HFD hamsters, orally twice daily for 14 days, FPLC of pooled plasma.

In general, EC50 refers to the midpoint of the concentration-response curve. Turning to `O=C(O)c1c[nH]c2ccc(-c3ccc(-c4c(O)cccc4O)cc3)cc12` [compound of formula (I), 5-(2',6'-dihydroxy-biphenyl-4-yl)-1H-indole-3-carboxylic acid], the figures for the EC50 in experiment [1] and in experiment [2] were less than 500 nM and less than 5000 nM, respectively. For the same compound, the “decrease of fasting plasma glycemia” value in experiment [3] (orally 60 mg/kg twice a day) is given as “at least 17%”. In addition, in experiment [3] (orally 60 mg/kg twice daily for 4 weeks, fasted for 6 hours, p <0.05 vs Control HFD), the blood glucose result is “significantly decreased”. Besides, the “HOMA-IR decrease (insulin sensitivity)” value in experiment [3] (results not shown) worked out at 43%; in experiment [6] (HFD hamster, results not shown) it was 37%. Also, in experiment [4] (orally 60 mg/kg twice a day, basal state), the “decrease of hepatic glucose production” value is “at least 34%”. Also, the hepatic glucose production result in experiment [4] is “normalized”; in experiment [4] (listed as Compound of formula (I)) it was “blunted”. Besides, the liver lipids content result in experiment [5] is on record as “reduced”. For the same compound, the “HDL total cholesterol levels” value in experiment [6] (setting [7]) is reported as “increased”. The “LDL total cholesterol levels” value in experiment [6] (setting [7]) is on record as “reduced”. The “VLDL total cholesterol levels” value in experiment [6] (setting [7]) is “reduced”.
